Reference: publication PMC6923382, “Small molecules that inhibit TNF signalling by stabilising an asymmetric form of the trimer” (Nature Communications, 2019)
Where “and” joins values, the source holds several entries; their conditions need not be identical. Equal entries are not always repeated. One block for each molecule: values may come before it.

Tests used:
mouse TNF = target: T1, mouse TNF (Mus musculus, UniProt P06804); experiment: Mouse TNF induced neutrophil recruitment in vivo; settings: Etanercept 30 mg/kg i.v.; mouse TNF; individual mice
T1 construct: stabilise an asymmetrical form of the soluble TNF trimer
T1 sequence (P06804 80-235 limits assumed): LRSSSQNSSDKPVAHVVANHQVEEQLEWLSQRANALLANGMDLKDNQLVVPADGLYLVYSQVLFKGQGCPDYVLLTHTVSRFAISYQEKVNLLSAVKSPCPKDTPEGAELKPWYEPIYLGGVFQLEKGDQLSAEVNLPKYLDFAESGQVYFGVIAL
Description: All in vivo studies were reviewed by an internal Ethical Review Body (ERB) and conducted in accordance with the Animals (Scientific Procedures) Act 1986, EU Directive 2010/63/EU. […] Anti-TNFα biologics, CDP571[21] (10 mg/kg) and etanercept (30 mg/kg), diluted in PBS, were dosed intravenously prior to human and mouse TNF challenge. Two hours after the TNF challenge, mice were sacrificed and the peritoneal cavity lavaged with 3 mL of FACS buffer. An aliquot (0.3 mL) of lavage fluid was used to assess the number CD45^+GR1^+ cells by flow cytometry. Briefly, the cells were treated with ACK lysis buffer, washed and suspended in FACS buffer prior to staining with FITC anti-mouse CD45 and PE anti-mouse GR1. Data are shown as mean ± standard error of the number of CD45^+GR-1^+ cells. Statistical significance (*p < 0.05, **p < 0.01, ****p < 0.0001) was determined using one-way ANOVA with Dunnett’s multiple comparison test.

TNF [1] = target: T2, TNF (Homo sapiens, UniProt P01375); experiment: Biacore SPR fragment binding to immobilised TNF; design: Human TNF (CID2043, UniProt P01375 residues 77–233); 6XHis-Smt3 (N, cleaved yes); host or cells: E. coli TOP10; settings: SPR fragment screen; concentration-dependent response
Description: (§1) BIA (Biomolecular Interaction Analysis) uses SPR to measure the binding of compounds to a protein immobilised on a chip surface. For this purpose a Biacore A100/4000 (GE Healthcare) was used. A CM5 sensor was immobilised via amine coupling on flow cell 1 with human Fc antibody domain (10k response units; kRU) and TNFR-Fc captured (2.5 kRU), flow cell 2 TNF (11 kRU), flow cell 3 was left blank (for non-specific binding), flow cell 4 TNFR-Fc (10 kRU), and flow cell 5 goat anti-human Fc 16 kRU). The sensor surface was then equilibrated in HBS-P (10 mM HEPES pH 7.4, 0.15 M NaCl, 0.005% Surfactant P20, BIAcore, GE Healthcare) with 5% DMSO for at least 5 h. Compounds were diluted from 100 mM stocks into DMSO matched buffer and then flowed over the immobilised flow cells at a concentration of 250 µM at the maximum flow rate of 30 μL/min. Background subtraction binding curves were analysed using the Biacore A100 BIA evaluation software version 1.1 following standard procedures.
Target sequence in this assay (P01375 77-233): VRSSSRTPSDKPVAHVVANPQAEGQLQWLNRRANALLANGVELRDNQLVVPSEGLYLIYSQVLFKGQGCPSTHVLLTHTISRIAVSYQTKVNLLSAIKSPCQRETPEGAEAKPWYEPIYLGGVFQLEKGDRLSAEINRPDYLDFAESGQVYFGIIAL

[2] = Dynamic light scattering (colloidal aggregation); format: physicochemical; settings: 100 μM; no detergent; 25°C; n=5
Description: Dynamic light scattering (DLS) experiments have been performed with compounds […]
baseline control and positive control (miconazole at 100 μM) were included. The radius data […]
compound in the absence of detergent.
DLS data (Malvern Nano ZS). Each sample (150 μl) was measured 5 times in a low volume disposable sizing cuvette at 25°C using 173º non-invasive backscatter (NIBS). […]

[3] = test system: TNFR1 extracellular domain and control proteins; experiment: Biacore SPR binding to control surfaces; settings: capture antibody plus TNFR1, capture antibody
Description: as §1

TNF [4] = target: T2, TNF; experiment: Thermal denaturation assay of thermal stability; format: binding; design: stabilise an asymmetrical form of the soluble TNF trimer
Description: A fluorescence probed thermal denaturation assay was performed to assess the effect of the compounds on the thermal stability of TNF (or other members of the TNF family) as a measure of compound binding. The reaction mixture contained 5 µL of 30× SYPRO® Orange dye (Invitrogen) and 5 µL of TNF (at 1 mg/mL), 37.5 μL PBS, pH 7.4 and 2.5 μL of compound (at 2 mM in DMSO). The mixture (10 µL) was dispensed in quadruplicate into a 384 PCR optical well plate and was run on a 7900HT Fast Real-Time PCR System ([…]). The PCR System heating device was set at 20 °C to 99 °C with a ramp rate of 1.1 °C min^−1; fluorescence changes in the wells were monitored by a CCD device. The fluorescence intensity increase was plotted as a function of temperature and the Tm calculated as the midpoint of this denaturation curve (determined as the point of inflection).
Target sequence in this assay (P01375 77-233 limits assumed): as the sequence (P01375 77-233) above

TNF [5] = target: T2, TNF; experiment: Biacore kinetics of binding; design: Human TNF (CID2043, UniProt P01375 residues 77–233); 6XHis-Smt3 (N, cleaved yes); host or cells: E. coli TOP10; settings: SPR single-cycle, linked TNF with n-terminal HKH tag
Description: Surface plasmon resonance using a Biacore T100/T200 was used to measure the association rate constant (ka), the dissociation rate constant (kd) and the affinity (KD) of compounds. TNF (VCID 2043 Beryllium) was immobilised to approximately 5 kRU as described above and equilibrated for at least 5 h in HBS P + buffer with 5% DMSO. UCB-6876 was serially diluted from 187.5 µM, flowing over the immobilised TNF at 50 µL/min for 3 min before allowing full dissociation under flow for at least 6 min. […] […] The compounds were allowed to dissociate for 2 h under flow.
Target sequence in this assay (P01375 with tags, fused parts or gaps): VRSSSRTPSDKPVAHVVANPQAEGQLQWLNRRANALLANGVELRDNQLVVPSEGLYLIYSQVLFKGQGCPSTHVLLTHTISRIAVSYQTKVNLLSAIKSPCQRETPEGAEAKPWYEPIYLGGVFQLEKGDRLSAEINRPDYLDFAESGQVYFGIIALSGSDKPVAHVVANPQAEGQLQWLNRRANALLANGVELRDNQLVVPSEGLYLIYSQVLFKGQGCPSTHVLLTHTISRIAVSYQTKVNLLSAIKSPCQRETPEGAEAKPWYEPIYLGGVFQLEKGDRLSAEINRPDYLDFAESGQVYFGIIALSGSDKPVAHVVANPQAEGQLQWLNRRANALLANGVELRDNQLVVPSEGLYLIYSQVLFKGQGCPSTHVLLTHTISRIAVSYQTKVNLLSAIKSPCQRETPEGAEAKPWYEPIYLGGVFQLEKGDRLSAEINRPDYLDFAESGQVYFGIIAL

TNF (L57F) = target: T3, TNF (L57F) (Homo sapiens, UniProt P01375, L133F); experiment: HEK reporter gene assay, L57F TNF; format: cell-based; settings: 10 pM L57F TNF; HEK NFκΒ reporter
T3 construct: Human TNF (CID2043, UniProt P01375 residues 77–233); 6XHis-Smt3 (N, cleaved yes); host or cells: E. coli
Description: Stimulation of HEK-293 cells by TNF leads to activation of the NF-κB pathway. The HEK-Blue^TM CD40L SEAP (secreted embryonic alkaline phosphatase) reporter cell line used to determine TNF activity (InvivoGen, #hkb-CD40, cells were described as mycoplasma free when purchased and were tested using Mycoalert [Lonza] after each batch of assay vial preparation). Compounds were titrated in DMSO and pre-incubated with TNF at a concentration giving half maximal response (10 pM for human or 20 pM for mouse) or the anti-human TNFR1 agonist antibody (R&D Systems. #AF 225) for 1 h. Cells were added to the compound/stimulus mixture and further incubated for 18 h. SEAP was measured using the colorimetric substrate HEK-Blue Detect^TM or QUANTI-Blue^TM from InvivoGen. Percentage inhibitions for compound dilutions were calculated between a DMSO control and maximum inhibition (by excess anti-TNF biologic, or NF-κB inhibitor–TPCA-1 [Tocris #2559, R&D Systems]). The IC50 was determined as the point of inflexion between the fitted minimum and maximum of the compound dose response curve, calculated using 4PL fitted curve. Mean IC50s are reported as a mean of at least two experiments. Dose response curves for TNF and the anti-human TNFR1 agonist antibody are shown in Supplementary Fig. 9. […]
In this assay reduction is luminescence is due to cell killing by TNF and inhibition causes increased luminescence. […]

TNF [6] = target: T2, TNF; experiment: TNF reporter gene assay HEK-293, human TNF; format: cell-based; design: stabilise an asymmetrical form of the soluble TNF trimer; settings: 10 pM wild-type TNF; HEK NFκΒ reporter
Description: Stimulation of HEK-293 cells by TNF leads to activation of the NF-κB pathway. The HEK-Blue^TM CD40L SEAP (secreted embryonic alkaline phosphatase) reporter cell line used to determine TNF activity (InvivoGen, #hkb-CD40, cells were described as mycoplasma free when purchased and were tested using Mycoalert [Lonza] after each batch of assay vial preparation). […] Cells were added to the compound/stimulus mixture and further incubated for 18 h. SEAP was measured using the colorimetric substrate HEK-Blue Detect^TM or QUANTI-Blue^TM from InvivoGen. […] The IC50 was determined as the point of inflexion between the fitted minimum and maximum of the compound dose response curve, calculated using 4PL fitted curve. Mean IC50s are reported as a mean of at least two experiments.
Target sequence in this assay (P01375 77-233 limits assumed): as the sequence (P01375 77-233) above

hTNF/hTNFR1 complex = target: T4, hTNF/hTNFR1 complex (Homo sapiens, UniProt P01375); experiment: Analytical size exclusion chromatography of TNF:TNFR1 stoichiometry; format: biochemical
T4 construct: stabilise an asymmetrical form of the soluble TNF trimer; host or cells: BV (baculovirus) for hTNFR1
Description: A stock of compound bound to human (h) TNF was prepared by pre-incubating hTNF (300 μM, molecular weight based on the homotrimer) overnight at 4 °C with UCB-5307 at a final concentration range from 90 μM to 690 μM, maintaining a constant DMSO concentration of 1%. The compound-bound hTNF was incubated for 1 h at 22 °C with hTNFR1 at a 3.2-fold molar excess over homotrimers (final concentrations: hTNFR1 240 μΜ, hTNF 75 µM). Identical samples were prepared with DMSO only, giving a final DMSO concentration of 0.25% for both sets of samples. Alternatively, a fully assembled hTNF/hTNFR1 complex (3 receptors per homotrimer) was formed by incubating hTNF with a 3.2-fold molar excess of hTNFR1 for 1 h at 22 °C. The TNF/TNFR1 complex was then incubated overnight at 4 °C with UCB-5307 at a final concentration range from 90 µM to 690 µM. Samples were subject to analytical size exclusion using HPLC. Injection volumes of 50 µL were separated on a TSK G3000SW L × I.D. 30 cm × 7.5 mm column (10 µm particle size) pre-equilibrated in 10 mM HEPES, pH 7.5, 150 mM NaCl.

[7] = target: T5, Mouse TNF (mouse), P06804; experiment: native MS; human TNF pre-incubated (saturated) with UCB-6876, then mixed 1:1 with mouse TNF; 20 mM ammonium acetate, 4% DMSO in the compound stock; various time points; settings: remark: other sources report otherwise
T5 chain: T1 sequence (P06804 80-235 limits assumed)

[8] = target: T5, Mouse TNF (mouse), P06804; experiment: native MS; mouse and human TNF, each 20 µM in 20 mM ammonium acetate pH 7.4, mixed 1:1 and analysed at various time points; no compound; nanospray, Exactive Plus EMR; settings: remark: other sources report otherwise

T4 sequence (P01375 77-233 limits assumed): as the sequence (P01375 77-233) above
T4 sequence (P19438 43-184 partner limits assumed): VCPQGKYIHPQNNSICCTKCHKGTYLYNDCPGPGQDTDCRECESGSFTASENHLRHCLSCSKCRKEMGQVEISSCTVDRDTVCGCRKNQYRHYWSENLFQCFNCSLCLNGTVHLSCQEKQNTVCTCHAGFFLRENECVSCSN
T3 sequence (P01375 77-233 L133F): as the sequence (P01375 77-233) above, with L57F counted along it

Molecule: Etanercept [reference compound]
CD45+ GR-1+ cells/mL in the peritoneal cavity (mouse TNF): 6123.9 cells/mL and 7203.0 cells/mL and 3131.9 cells/mL and 6069.0 cells/mL and 1965.3 cells/mL

binding to immobilised TNF (TNF [1]): bound to TNF | colloidal aggregation (DLS radius) [2]: no evidence of colloidal aggregation
Molecule: Cc1ccccc1Cn1c(CO)nc2ccccc21 [UCB-6786]
binding to TNFR1 and control proteins (selectivity) [3]: selectivity over the TNFR1 extracellular domain and control proteins

Tm difference (hTNF + compound) - (hTNF+DMSO) (TNF [4]; DMSO 5%): 12.2 °C | Tm (mean ± SD) (TNF [4]; hTNF + DMSO (5%) + compound, n=4 replicates): 72.9 ± 0.6 °C | Tm1 Average (TNF [4]; inhouse hTNF 5% DMSO + compound, 4 wells): 72.9 °C | Unreviewed - Tm1 (TNF [4]; single wells, inhouse hTNF 5% DMSO + compound, listed as 1445307-000, in °C): 72.4 and 73.5 and 73.2 | kd (off-rate) (TNF [5]): 5.76e-05 s⁻¹ | Kd (TNF [5]; read-out: KD): 9 nM | inhibition of L57F TNF (TNF (L57F)): did not inhibit | inhibition of wild-type TNF (TNF [6]): inhibited | effect on preformed hTNF/hTNFR1 complex (hTNF/hTNFR1 complex; 90-690 µM compound, 3.2-fold excess hTNFR1): dislodging one of the receptors
Molecule: Cc1ccc(C)c(Cn2c(C(O)c3ccncc3)nc3ccccc32)c1 (stereo not shown) [UCB-5307]
number of TNFR1 bound per hTNF trimer, hTNF preloaded with compound (hTNF/hTNFR1 complex; 90-690 μM compound overnight, then 3.2-fold excess hTNFR1): dose-dependent shift from three receptors bound to two

stoichiometry N [7]: 3 | stoichiometry N [8]: 3
B1: Mouse TNF, P06804 80-235 (ligand)
chain: T1 sequence (P06804 80-235 limits assumed)
